Source: EP3241830A1, “CONDENSED BICYCLIC HETEROCYCLIC DERIVATIVES AS PESTICIDES” (Bayer CropScience Aktiengesellschaft, priority 2016, dated 2017)

Tests used:
[1] = logP determination by HPLC on a reversed-phase column (C18), EEC Directive 79/831 Annex V.A8; assay type: physicochemical; details: LC-MS in the acidic range, pH 2,7, 0,1 % aqueous formic acid and acetonitrile, 55°C, read-out: logP (HCOOH)
Description: Die Messung der logP Werte erfolgt gemäß EEC Directive 79/831 Annex V.A8 durch HPLC (High Performance Liquid Chromatography) an einer Phasenumkehrsäule (C 18). Temperatur: 55°C.
Die Bestimmung mit der LC-MS im sauren Bereich erfolgt bei pH 2,7 mit 0,1 % wässriger Ameisensäure und Acetonitril (enthält 0,1% Ameisensäure) als Eluenten; linearer Gradient von 10% Acetonitril bis 95% Acetonitril. In der Tabelle logP (HCOOH) genannt.
Die Eichung erfolgt mit unverzweigten Alkan-2-onen (mit 3 bis 16 Kohlenstoffatomen), deren logP-Werte bekannt sind (Bestimmung der logP-Werte anhand der Retentionszeiten durch lineare Interpolation zwischen zwei aufeinander folgenden Alkanonen).

Phaedon cochleariae = Phaedon cochleariae spray test; assay type: in vivo; details: foliar, 168 h, after 7 days, sprayed Chinese cabbage leaf discs (Brassica pekinensis) with larvae, 100 % = all beetle larvae killed, read-out: Wirkung
From the text: Lösungsmittel: • 78,0 Gewichtsteile Aceton • 1,5 Gewichtsteile Dimethylformamid Emulgator: Alkylarylpolyglykolether
(§1) Zur Herstellung einer zweckmäßigen Wirkstoffzubereitung löst man 1 Gewichtsteil Wirkstoff mit den angegebenen Gewichtsteilen Lösungsmittel und füllt mit Wasser, welches eine Emulgatorkonzentration von 1000 ppm enthält, bis zum Erreichen der gewünschten Konzentration auf. Zur Herstellung weiterer Testkonzentrationen wird mit emulgatorhaltigem Wasser verdünnt.
Chinakohlblattscheiben (Brassica pekinensis) werden mit einer Wirkstoffzubereitung der gewünschten Konzentration gespritzt und nach dem Abtrocknen mit Larven des Meerrettichblattkäfers (Phaedon cochleariae) besetzt.
Nach 7 Tagen wird die Wirkung in % bestimmt. Dabei bedeutet 100 %, dass alle Käferlarven abgetötet wurden; 0 % bedeutet, dass keine Käferlarven abgetötet wurden.

Myzus persicae = Myzus persicae spray test; assay type: in vivo; details: foliar, 120 h, after 5 days, sprayed Chinese cabbage leaf discs (Brassica pekinensis) infested with all stages, 100 % = all aphids killed, read-out: Wirkung
From the text: Lösungsmittel: • 78 Gewichtsteile Aceton • 1,5 Gewichtsteile Dimethylformamid Emulgator: Alkylarylpolyglykolether
as §1
Chinakohlblattscheiben (Brassica pekinensis), die von allen Stadien der Grünen Pfirsichblattlaus (Myzus persicae) befallen sind, werden mit einer Wirkstoffzubereitung der gewünschten Konzentration gespritzt.
Nach 5 Tagen wird die Wirkung in % bestimmt. Dabei bedeutet 100 %, dass alle Blattläuse abgetötet wurden; 0 % bedeutet, dass keine Blattläuse abgetötet wurden.

| SMILES | chromatographic logP [1] | mortality at 500 g/ha (Phaedon cochleariae) [%] | mortality at 500 g/ha (Myzus persicae) [%] |
| --- | --- | --- | --- |
| CCS(=O)(=O)c1c(-c2nc3cc(C(F)(F)F)ncc3n2C)n(C)c2cc(Cl)ccc12 [Bsp. I-1, 2-(6-Chlor-3-ethylsulfonyl-1-methyl-indol-2-yl)-3-methyl-6-(trifluormethyl)imidazo[4,5-c]pyridin] | 3.11 | 100 | 90 |
| CCSc1c(-c2nc3cc(C(F)(F)F)ncc3n2C)n(C)c2cc(Cl)ccc12 [Bsp. I-2, 2-(6-Chlor-3-ethylsulfanyl-1-methyl-indol-2-yl)-3-methyl-6-(trifluormethyl)imidazo[4,5-c]pyridin] | 4.51 | – | – |
| Cn1c(-c2c(Cl)c3ccc(Cl)cc3n2C)nc2cc(C(F)(F)F)ncc21 [Bsp. V-1, 2-(3,6-Dichlor-1-methyl-indol-2-yl)-3-methyl-6-(trifluormethyl)imidazo[4,5-c]pyridin] | 4.23 | – | – |
